Like-named read-outs stand apart in the source and are kept apart here.
Assays:
Type in all cases: in vivo
[1] = tested on: Beet Armyworm (Spodoptera exigua, LAPHEG); experiment: Bioassay on Beet Armyworm (BAW), 128-well diet tray assay
How it was run: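 Test molecule dissolved in acetone-water 90:10 is applied at 50 μg/cm^2 onto artificial diet and allowed to dry. Second instar larvae, one to five per well, are then added, and trays are vented and kept at 25° C. for five to seven days before mortality is scored.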

[2] = tested on: Yellow Fever Mosquito (Aedes aegypti, AEDSAE); experiment: Bioassay on Yellow Fever Mosquito (YFM), 96-well plate larval assay; settings: for YFM (Biological Results, rating): Species YFM (Yellow Fever Mosquito); for YFM rating: Yellow Fever Mosquito, 96-well plate larval assay
How it was run: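 Aedes aegypti larvae (about 1 day old) in liver-powder water were added to plates dispensed from DMSO master plates (4000 ppm stock) diluted with 90:10 water/acetone; six replicate plates per master. Lidded plates were held at room temperature for 3 days, then each well was scored for mortality.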

[3] = tested on: Cabbage Looper (Trichoplusia ni, TRIPNI); experiment: Bioassay on Cabbage Looper (CL), 128-well diet tray assay; settings: Trichoplusia ni
How it was run: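 Mortality of second instar larvae exposed to diet coated with 50 μg/cm^2 compound (acetone-water 90:10 vehicle, dried); 25° C., 5–7 days.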

[4] = Species BAW (Beet Armyworm), read-out: BAW (Biological Results, rating)
[5] = Species CL (Cabbage Looper), read-out: CL (Biological Results, rating)
[6] = Beet Armyworm, 128-well diet tray assay, read-out: BAW rating
[7] = Cabbage Looper, 128-well diet tray assay, read-out: CL rating

Structure (SMILES)	pest or weed control at 50 µg/cm2 [1, 4] [%]	YFM (Biological Results, rating) [2]	pest or weed control at 50 µg/cm2 [3, 5] [%]	pest or weed control at 50 µg/cm2 [1, 6] [%]	YFM rating [2]	pest or weed control at 50 µg/cm2 [3, 7] [%]
O=C(Nc1ccc(F)cc1F)c1cc(NC(=O)C2C(c3cc(Cl)cc(Cl)c3)C2(Cl)Br)ccc1Cl (stereo not drawn) [F187, 5-(trans)-2-Bromo-2-chloro-3-(3,5-dichlorophenyl)cyclopropane-1-carboxamido)-2-chloro-N-(2,4-difluorophenyl)benzamide]	50 to 100	A (80-100)	50 to 100	–	–	–
Nc1cc(NC(=O)c2cc(NC(=O)[C@H]3[C@H](c4ccc(F)c(Cl)c4)C3(Cl)Cl)ccc2Cl)c(F)cc1F [F403, N-(5-Amino-2,4-difluorophenyl)-2-chloro-5-((1R,3R)-2,2-dichloro-3-(3-chloro-4-fluorophenyl)cyclopropane-1-carboxamido)benzamide]	–	–	–	50 to 100	A (80-100)	50 to 100
O=C(Nc1ncc(F)c(I)c1F)c1cc(NC(=O)[C@H]2[C@H](c3cc(Cl)cc(Cl)c3)C2(Cl)Cl)ccc1Cl (relative stereo) [F388, 2-Chloro-5-(trans-2,2-dichloro-3-(3,5-dichlorophenyl)cyclopropane-1-carboxamido)-N-(3,5-difluoro-4-iodopyridin-2-yl)benzamide]	–	–	–	50 to 100	A (80-100)	50 to 100
O=C(Nc1cccc2[nH]ccc12)c1cc(NC(=O)[C@H]2[C@H](c3cc(Cl)cc(Cl)c3)C2(Cl)Cl)ccc1Cl (relative stereo) [F528, 2-Chloro-5-(trans)-(2,2-dichloro-3-(3,5-dichlorophenyl)cyclopropane-1-carboxamido)-N-(1H-indol-4-yl)benzamide]	–	–	–	50 to 100	A (80-100)	50 to 100
Nc1cc(F)cc(NC(=O)c2cc(NC(=O)[C@H]3[C@H](c4ccc(Cl)c(Cl)c4)C3(Cl)Cl)ccc2Cl)c1 [F431, N-(3-Amino-5-fluorophenyl)-2-chloro-5-((1R,3R)-2,2-dichloro-3-(3,4-dichlorophenyl)cyclopropane-1-carboxamido)benzamide]	–	–	–	50 to 100	A (80-100)	50 to 100
O=C(Nc1nc2cc(F)ccc2s1)c1cc(NC(=O)C2C(c3cc(Cl)cc(Cl)c3)C2(Cl)Cl)ccc1Cl (stereo not drawn) [F442, 2-Chloro-5-(trans)-2,2-dichloro-3-(3,5-dichlorophenyl)cyclopropane-1-carboxamido)-N-(5-fluorobenzo[d]thiazol-2-yl)benzamide]	–	–	–	50 to 100	B (More than 0-Less than 80)	50 to 100
Nc1ccc(F)cc1NC(=O)c1cc(NC(=O)[C@H]2[C@H](c3cc(Cl)cc(Cl)c3)C2(Cl)Cl)ccc1Cl [F373, N-(2-Amino-5-fluorophenyl)-2-chloro-5-((1R,3R)-2,2-dichloro-3-(3,5-dichlorophenyl)cyclopropane-1-carboxamido)benzamide]	–	–	–	50 to 100	A (80-100)	50 to 100
CNc1cccc(NC(=O)c2cc(NC(=O)[C@H]3[C@H](c4cc(Cl)cc(Cl)c4)C3(Cl)Cl)ccc2Cl)c1 (relative stereo) [F202, trans-2-Chloro-5-(2,2-dichloro-3-(3,5-dichlorophenyl)cyclopropane-1-carboxamido)-N-(3-(methylamino)phenyl)benzamide]	50 to 100	A (80-100)	50 to 100	–	–	–
CN(C(=O)c1cc(NC(=O)C2C(c3cc(Cl)cc(Cl)c3)C2(Cl)Br)ccc1Cl)c1ccc(F)cc1 (stereo not drawn) [F167, 5-(trans)-2-Bromo-2-chloro-3-(3,5-dichlorophenyl)cyclopropanecarboxamido)-2-chloro-N-(4-fluorophenyl)-N-methylbenzamide]	50 to 100	B (More than 0-Less than 80)	50 to 100	–	–	–
Nc1ccc(NC(=O)c2cc(NC(=O)[C@H]3[C@H](c4cc(Cl)cc(Cl)c4)C3(Cl)Cl)ccc2Cl)c(F)c1 (relative stereo) [F175, trans-N-(4-amino-2-fluorophenyl)-2-chloro-5-(2,2-dichloro-3-(3,5-dichlorophenyl)cyclopropane-1-carboxamido)benzamide]	50 to 100	A (80-100)	50 to 100	–	–	–
O=C(Nc1ccc(F)cc1)c1cc(NC(=O)[C@H]2[C@H](c3ccc(Cl)c(Cl)c3)C2(Cl)Cl)ccc1Cl [F209, 2-Chloro-5-((1R,3R)-2,2-dichloro-3-(3,4-dichlorophenyl)cyclopropane-1-carboxamido)-N-(4-fluorophenyl)benzamide]	50 to 100	A (80-100)	50 to 100	–	–	–
O=C(CC1CC1)Nc1ccc(NC(=O)c2cc(NC(=O)[C@H]3[C@H](c4cc(Cl)cc(Cl)c4)C3(Cl)Cl)ccc2Cl)cc1 (relative stereo) [PF163, trans-2-Chloro-N-(4-(2-cyclopropylacetamido)phenyl)-5-(2,2-dichloro-3-(3,5-dichlorophenyl)cyclopropane-1-carboxamido)benzamide]	–	–	–	50 to 100	A (80-100)	50 to 100
Nc1cc(NC(=O)c2cc(NC(=O)[C@H]3[C@H](c4ccc(Cl)c(Cl)c4)C3(Cl)Cl)ccc2Cl)c(F)cc1F [F354, N-(5-Amino-2,4-difluorophenyl)-2-chloro-5-((1R,3R)-2,2-dichloro-3-(3,4-dichlorophenyl)cyclopropane-1-carboxamido)benzamide]	50 to 100	A (80-100)	50 to 100	–	–	–
Cc1cc(N)ccc1NC(=O)c1cc(NC(=O)[C@@H]2[C@@H](c3cc(Cl)cc(Cl)c3)C2(Cl)Cl)ccc1Cl [F284, N-(4-Amino-2-methylphenyl)-2-chloro-5-((1S,3S)-2,2-dichloro-3-(3,5-dichlorophenyl)cyclopropane-1-carboxamido)benzamide]	50 to 100	A (80-100)	50 to 100	–	–	–
O=C(Nc1ccc(F)c(F)c1F)c1cc(NC(=O)[C@H]2[C@H](c3cc(Cl)cc(Cl)c3)C2(Cl)Cl)ccc1Cl (relative stereo) [PF68, trans-2-Chloro-5-(2,2-dichloro-3-(3,5-dichlorophenyl)cyclopropane-1-carboxamido)-N-(2,3,4-trifluorophenyl)benzamide]	–	–	–	50 to 100	A (80-100)	50 to 100
Nc1c(F)cnc(NC(=O)c2cc(NC(=O)[C@H]3[C@H](c4ccc(Cl)c(Cl)c4)C3(Cl)Cl)ccc2Cl)c1F [F371, N-(4-Amino-3,5-difluoropyridin-2-yl)-2-chloro-5-((1R,3R)-2,2-dichloro-3-(3,4-dichlorophenyl)cyclopropane-1-carboxamido)benzamide]	50 to 100	A (80-100)	50 to 100	–	–	–
COC(=O)C(O)(c1ccc(NC(=O)c2cc(NC(=O)[C@H]3[C@H](c4cc(Cl)cc(Cl)c4)C3(Cl)Cl)ccc2Cl)c(C)c1)C(F)(F)F (relative stereo) [F257, Methyl 2-(4-(2-chloro-5-(trans)-(2,2-dichloro-3-(3,5-dichlorophenyl)cyclopropane-1-carboxamido)benzamido)-3-methylphenyl)-3,3,3-trifluoro-2-hydroxypropanoate]	50 to 100	A (80-100)	50 to 100	–	–	–
Cc1c(NC(=O)c2cc(NC(=O)[C@H]3[C@H](c4cc(Cl)cc(Cl)c4)C3(Cl)Cl)ccc2Cl)ccc2[nH]ccc12 (relative stereo) [F485, 2-Chloro-5-(trans)-(2,2-dichloro-3-(3,5-dichlorophenyl)cyclopropane-1-carboxamido)-N-(4-methyl-1H-indol-5-yl)benzamide]	–	–	–	50 to 100	A (80-100)	50 to 100
CN(C(=O)c1cc(NC(=O)[C@H]2[C@H](c3ccc(F)c(C(F)F)c3)C2(Cl)Cl)ccc1Cl)c1ccc(F)cc1 (relative stereo) [F595, 2-Chloro-5-(trans-2,2-dichloro-3-(3-(difluoromethyl)-4-fluorophenyl)cyclopropane-1-carboxamido)-N-(4-fluorophenyl)-N-methylbenzamide]	–	–	–	50 to 100	A (80-100)	50 to 100
O=C(Nc1ncc(F)cn1)c1cc(NC(=O)[C@H]2[C@H](c3cc(Cl)cc(Cl)c3)C2(Cl)Cl)ccc1Cl (relative stereo) [F222, trans-2-Chloro-5-(2,2-dichloro-3-(3,5-dichlorophenyl)cyclopropane-1-carboxamido)-N-(5-fluoropyrimidin-2-yl)benzamide]	50 to 100	A (80-100)	50 to 100	–	–	–
O=C(Nc1ccc(F)cc1F)c1cc(NC(=O)[C@H]2[C@H](c3ccc(F)c(Br)c3)C2(Cl)Cl)ccc1Cl (relative stereo) [F375, 5-(trans)-(3-(3-Bromo-4-fluorophenyl)-2,2-dichlorocyclopropane-1-carboxamido)-2-chloro-N-(2,4-difluorophenyl)benzamide]	–	–	–	50 to 100	A (80-100)	50 to 100

Source: patent US10219516B2, “Molecules having pesticidal utility, and intermediates, compositions, and processes, related thereto” (priority 2015, dated 2019)
